Test results from publication PMC8226452, “PESIN Conjugates for Multimodal Imaging: Can Multimerization Compensate Charge Influences on Cell Binding Properties? A Case Study” (Pharmaceuticals, 2021).
Like-named read-outs stand apart in the source and are kept apart here.

Assays:
[1] = not given; remark: listed apart in the source
[2] = logD by partition between n-octanol and aqueous solution at pH 7.4; format: physicochemical
Procedure: For the ^68Ga-labeled agents [^68Ga]Ga-2, [^68Ga]Ga-3, [^68Ga]Ga-5, and [^68Ga]Ga-6, and the dyes NIR-820 and 1, the logD values were determined by partition experiments between n-octanol and aqueous solution at pH 7.4.
Determination of logD. The n-octanol/water partition coefficient (logD) of [^68Ga]Ga-2, [^68Ga]Ga-3, [^68Ga]Ga-5, and [^68Ga]Ga-6 was determined as previously described. In brief, 5 µL of the respective radiolabeled product solutions were added to a mixture of n-octanol (800 µL) and phosphate buffered solution (0.05 M, pH 7.4, 795 µL) and vigorously shaken for 5 min. After separation of the phases by centrifugation, 100 µL of each phase was taken and measured in a γ-counter.

[3] = molecular target: T1, gastrin-releasing peptide receptor (GRPR) (Homo sapiens, UniProt P30550); test: Competitive displacement assay with [125I]I-Tyr4-bombesin on stably GRPR-transfected HEK-293 cells; conditions: 10^5 GRPR-transfected HEK-293 cells per well; radioligand [125I]I-Tyr4-bombesin; 11 competitor concentrations (0.25-500 nM for 5 and 6, 0.1-250 nM for BBN); 1 h at ambient temperature; γ-counting; nonlinear regression; at least three experiments, each in triplicate; read-out: IC50 (GRPR binding affinity)
T1 construct: host or cells: HEK-293 (human embryonic kidney) cells, stably GRPR-transfected
Procedure: Human embryonic kidney 293 cells, stably expressing the GRP receptor (GRPR HEK-293 cells), were obtained from Dr. Martin Béhé, Paul Scherrer Institute, Villingen, Switzerland. Cells were cultured using Dulbecco’s modified Eagle’s medium (DMEM, high glucose, GlutaMax-I, 500 mL), geneticin (G418 Sulfate, 50 mg/mL), Opti-MEM I (GlutaMAX I), RPMI 1640 medium and PenStrep from Gibco, fetal calf serum (FCS) from Bio&sell (Feucht, Germany) and Dulbecco’s phosphate buffered saline (PBS), 0.25% Trypsin and 0.02% EDTA solution in PBS from Sigma-Aldrich (Darmstadt, Germany).
Competitive Receptor Binding Assay. The assays were carried out on stably GRPR-transfected HEK-293 cells as described previously [26, 27]. In brief, 50 µL of a cell suspension containing 10^5 cells was seeded in each well of a Millipore 96-well filter plate. […] After one hour of incubation at ambient temperature, the suspension was filtered and the cells washed thrice with cold PBS. The filter was punched out and measured by γ-counting. […] IC50 values were obtained from at least three different experiments, each performed in triplicate.

[4] = shake-flask, n-octanol (800 µL)/phosphate buffered solution (0.05 M, pH 7.4, 795 µL), 5 µL of 68Ga-labeled product solution, shaken 5 min, centrifugation, 100 µL of each phase measured in γ-counter, read-out: logD (n-octanol/water partition coefficient)

T1 sequence (P30550 whole entry, species assumed): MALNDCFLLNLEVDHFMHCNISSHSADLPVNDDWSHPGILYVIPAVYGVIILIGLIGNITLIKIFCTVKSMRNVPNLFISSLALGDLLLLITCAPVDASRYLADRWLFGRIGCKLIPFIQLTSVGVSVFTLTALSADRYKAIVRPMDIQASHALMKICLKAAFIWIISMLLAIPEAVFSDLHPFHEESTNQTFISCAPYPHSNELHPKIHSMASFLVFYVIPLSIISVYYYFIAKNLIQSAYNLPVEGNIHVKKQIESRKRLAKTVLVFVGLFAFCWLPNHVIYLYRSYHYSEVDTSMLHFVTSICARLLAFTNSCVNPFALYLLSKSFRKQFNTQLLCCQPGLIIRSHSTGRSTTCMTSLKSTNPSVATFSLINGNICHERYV

In the case of `CSCC[C@H](NC(=O)[C@H](CC(C)C)NC(=O)[C@H](Cc1c[nH]cn1)NC(=O)CNC(=O)[C@@H](NC(=O)[C@H](C)NC(=O)[C@H](Cc1c[nH]c2ccccc12)NC(=O)[C@H](CCC(N)=O)NC(=O)CCOCCOCCOCCOCCNC(=O)CO/N=C/c1ccc(C(=O)NCCCN(CCCNC(=O)c2ccc(/C=N/OCC(=O)NCCOCCOCCOCCOCCC(=O)N[C@@H](CCC(N)=O)C(=O)N[C@@H](Cc3c[nH]c4ccccc34)C(=O)N[C@@H](C)C(=O)N[C@H](C(=O)NCC(=O)N[C@@H](Cc3c[nH]cn3)C(=O)N[C@@H](CC(C)C)C(=O)N[C@@H](CCSC)C(N)=O)C(C)C)cc2)CC(=O)N[C@@H](CSC2CC(=O)N(CCN3C(=O)CC(SC[C@H](NC(=O)[C@H](CCCCNC(=O)c4ccc5c(c4)C(C)(C)C(/C=C/C4=C(c6ccccc6)C(=C/C=C6/N(CCCCS(=O)(=O)O)c7ccc(C(=O)O)cc7C6(C)C)/CCC4)=[N+]5CCCCS(=O)(=O)[O-])NC(=O)CC[C@H](C(=O)O)N4CCN(CC(=O)O)CCN(CC(=O)O)CC4)C(N)=O)C3=O)C2=O)C(=O)NCCOCCOCC(=O)O)cc1)C(C)C)C(N)=O` (stereo partly shown), the λmax(em) is reported as 790 nm and the Stokes Shift [1] is reported as 20 nm.
With `CSCC[C@H](NC(=O)[C@H](CC(C)C)NC(=O)[C@H](Cc1c[nH]cn1)NC(=O)CNC(=O)[C@@H](NC(=O)[C@H](C)NC(=O)[C@H](Cc1c[nH]c2ccccc12)NC(=O)[C@H](CCC(N)=O)NC(=O)CCOCCOCCOCCOCCNC(=O)CO/N=C/c1ccc(C(=O)NCCCN(CCCNC(=O)c2ccc(/C=N/OCC(=O)NCCOCCOCCOCCOCCC(=O)N[C@@H](CCC(N)=O)C(=O)N[C@@H](Cc3c[nH]c4ccccc34)C(=O)N[C@@H](C)C(=O)N[C@H](C(=O)NCC(=O)N[C@@H](Cc3c[nH]cn3)C(=O)N[C@@H](CC(C)C)C(=O)N[C@@H](CCSC)C(N)=O)C(C)C)cc2)CC(=O)N[C@@H](CSC2CC(=O)N(CCN3C(=O)CC(SC[C@H](NC(=O)[C@H](CCCCNC(=O)c4ccc5c(c4)C(C)(C)C(/C=C/C4=C(c6ccccc6)C(=C/C=C6/N(CCCCS(=O)(=O)O)c7ccc(C(=O)O)cc7C6(C)C)/CCC4)=[N+]5CCCCS(=O)(=O)[O-])NC(=O)CC[C@H](C(=O)O)N4CCN(CC(=O)O)CCN(CC(=O)O)CC4)C(N)=O)C3=O)C2=O)C(=O)NCCOCCOCC(=O)O)cc1)C(C)C)C(N)=O` (stereo partly shown) [Compound 5] the “logD (n-octanol/water partition coefficient)” value ([2]; shake-flask, n-octanol (800 µL)/phosphate buffered solution (0.05 M, pH 7.4, 795 µL), 5 µL of 68Ga-labeled product solution, shaken 5 min, centrifugation, 100 µL of each phase measured in γ-counter) was −2.2 ± 0.1 and the IC50 [3] was 59.1 ± 1.49 nM.
In the case of `CC1(C)C(/C=C/C2=C(Cl)C(=C/C=C3\N(CCCCS(=O)(=O)[O-])c4ccc(C(=O)O)cc4C3(C)C)/CCC2)=[N+](CCCCS(=O)(=O)[O-])c2ccc(C(=O)O)cc21.[H+]` [NIR-820, reference compound], the “logD (n-octanol/water partition coefficient)” value ([2]; unlabeled dyes, comparable n-octanol/water partition experiments at pH 7.4, HPLC analysis of the phases instead of γ-counting) is reported as −3.3 ± 0.7.
In the case of `CC1(C)C(/C=C/C2=C(c3ccccc3)C(=C/C=C3/N(CCCCS(=O)(=O)O)c4ccc(C(=O)NCCCC[C@H](NC(=O)CC[C@H](C(=O)O)N5CCN(CC(=O)O)CCN(CC(=O)O)CC5)C(=O)N[C@@H](CS)C(N)=O)cc4C3(C)C)/CCC2)=[N+](CCCCS(=O)(=O)[O-])c2ccc(C(=O)O)cc21` [[^68Ga]Ga-2, metal not drawn], the “logD (n-octanol/water partition coefficient)” value ([2]; pH 7.4) is reported as −2.6 ± 0.1.
`CC1(C)C(/C=C/C2=C(c3ccccc3)C(=C/C=C3/N(CCCCS(=O)(=O)O)c4ccc(C(=O)NCCCC[C@H](NC(=O)CC[C@H](C(=O)O)N5CCN(CC(=O)O)CCN(CC(=O)O)CC5)C(=O)N[C@@H](CS)C(N)=O)cc4C3(C)C)/CCC2)=[N+](CCCCS(=O)(=O)[O-])c2ccc(C(=O)NCCCC[C@H](NC(=O)CC[C@H](C(=O)O)N3CCN(CC(=O)O)CCN(CC(=O)O)CC3)C(=O)N[C@@H](CS)C(N)=O)cc21` [[^68Ga]Ga-3, metal not drawn] gave a logD ([2]; pH 7.4) of -2.9 ± 0.1.
`CSCC[C@H](NC(=O)[C@H](CC(C)C)NC(=O)[C@H](Cc1c[nH]cn1)NC(=O)CNC(=O)[C@@H](NC(=O)[C@H](C)NC(=O)[C@H](Cc1c[nH]c2ccccc12)NC(=O)[C@H](CCC(N)=O)NC(=O)CCOCCOCCOCCOCCNC(=O)CO/N=C/c1ccc(C(=O)NCCCN(CCCNC(=O)c2ccc(/C=N/OCC(=O)NCCOCCOCCOCCOCCC(=O)N[C@@H](CCC(N)=O)C(=O)N[C@@H](Cc3c[nH]c4ccccc34)C(=O)N[C@@H](C)C(=O)N[C@H](C(=O)NCC(=O)N[C@@H](Cc3c[nH]cn3)C(=O)N[C@@H](CC(C)C)C(=O)N[C@@H](CCSC)C(N)=O)C(C)C)cc2)CC(=O)N[C@@H](CSC2CC(=O)N(CCN3C(=O)CC(SC[C@H](NC(=O)[C@H](CCCCNC(=O)c4ccc5c(c4)C(C)(C)C(/C=C/C4=C(c6ccccc6)C(=C/C=C6/N(CCCCS(=O)(=O)O)c7ccc(C(=O)O)cc7C6(C)C)/CCC4)=[N+]5CCCCS(=O)(=O)[O-])NC(=O)CC[C@H](C(=O)O)N4CCN(CC(=O)O)CCN(CC(=O)O)CC4)C(N)=O)C3=O)C2=O)C(=O)NCCOCCOCC(=O)O)cc1)C(C)C)C(N)=O` (stereo partly shown) [[^68Ga]Ga-5, metal not drawn] gave a logD [2, 4] of -2.2 ± 0.1.
With `CSCC[C@H](NC(=O)[C@H](CC(C)C)NC(=O)[C@H](Cc1c[nH]cn1)NC(=O)CNC(=O)[C@@H](NC(=O)[C@H](C)NC(=O)[C@H](Cc1c[nH]c2ccccc12)NC(=O)[C@H](CCC(N)=O)NC(=O)CCOCCOCCOCCOCCNC(=O)CO/N=C/c1ccc(C(=O)NCCCN(CCCNC(=O)c2ccc(/C=N/OCC(=O)NCCOCCOCCOCCOCCC(=O)N[C@@H](CCC(N)=O)C(=O)N[C@@H](Cc3c[nH]c4ccccc34)C(=O)N[C@@H](C)C(=O)N[C@H](C(=O)NCC(=O)N[C@@H](Cc3c[nH]cn3)C(=O)N[C@@H](CC(C)C)C(=O)N[C@@H](CCSC)C(N)=O)C(C)C)cc2)CC(=O)N[C@@H](CSC2CC(=O)N(CCN3C(=O)CC(SC[C@H](NC(=O)[C@H](CCCCNC(=O)c4ccc5c(c4)C(C)(C)C(/C=C/C4=C(c6ccccc6)C(=C/C=C6/N(CCCCS(=O)(=O)O)c7ccc(C(=O)NCCCC[C@H](NC(=O)CC[C@H](C(=O)O)N8CCN(CC(=O)O)CCN(CC(=O)O)CC8)C(=O)N[C@@H](CSC8CC(=O)N(CCN9C(=O)CC(SC[C@H](NC(=O)CN(CCCNC(=O)c%10ccc(/C=N/OCC(=O)NCCOCCOCCOCCOCCC(=O)N[C@@H](CCC(N)=O)C(=O)N[C@@H](Cc%11c[nH]c%12ccccc%11%12)C(=O)N[C@@H](C)C(=O)N[C@H](C(=O)NCC(=O)N[C@@H](Cc%11c[nH]cn%11)C(=O)N[C@@H](CC(C)C)C(=O)N[C@@H](CCSC)C(N)=O)C(C)C)cc%10)CCCNC(=O)c%10ccc(/C=N/OCC(=O)NCCOCCOCCOCCOCCC(=O)N[C@@H](CCC(N)=O)C(=O)N[C@@H](Cc%11c[nH]c%12ccccc%11%12)C(=O)N[C@@H](C)C(=O)N[C@H](C(=O)NCC(=O)N[C@@H](Cc%11c[nH]cn%11)C(=O)N[C@@H](CC(C)C)C(=O)N[C@@H](CCSC)C(N)=O)C(C)C)cc%10)C(=O)NCCOCCOCC(=O)O)C9=O)C8=O)C(N)=O)cc7C6(C)C)/CCC4)=[N+]5CCCCS(=O)(=O)[O-])NC(=O)CC[C@H](C(=O)O)N4CCN(CC(=O)O)CCN(CC(=O)O)CC4)C(N)=O)C3=O)C2=O)C(=O)NCCOCCOCC(=O)O)cc1)C(C)C)C(N)=O` (stereo partly shown) [[^68Ga]Ga-6, metal not drawn] the logD [2, 4] was -1.8 ± 0.1 and the Stokes Shift [1] was 20 nm.
